test: method code SF, from Hansch, C. & Leo, A. (1987). Log P database [Dataset]. Pomona College Medicinal Chemistry Project.; conditions: not given

SMILES	logP
[O-][N+](=Cc1c(Cl)cccc1Cl)c1ccccc1	2.16
O=S(=O)(Oc1ccccc1)c1ccccc1	3.06
CC(Cl)(Cl)Cl	2.49
C/N=C(\NC)NC#N	-0.4
O=[N+]([O-])C=Cc1ccoc1	1.41
Nc1ccc2nc3ccccc3cc2c1	2.62
CNC(=O)NCCSCc1nc[nH]c1C	-0.06
O=C(CNC(=O)c1ccccc1)Oc1ccccc1	2.31
NC(=O)c1ccc(F)cc1	0.91
CC(F)F	0.75
CN(Cc1ccccc1)/N=N/c1ccc(C#N)cc1	3.82
N#CN=[N+]([O-])c1cccc(Cl)c1	2.4
c1nnn[nH]1	-0.6
O=C(c1ccncc1)c1ccc([N+](=O)[O-])cc1	1.76
CNP(=O)(OC)Oc1ccc(OC)cc1 (stereo not given)	1.06
Nc1ccc([N+](=O)[O-])cc1N	0.88
CCSc1ccccc1	3.2
CC(=O)Nc1cn[nH]c1	-0.38
CC(C)CN(CC(C)C)C(=O)C=Cc1ccc2c(c1)OCO2	4.37
CCOC(=O)C(=Cc1ccccc1C)C(=O)OCC	3.22
Brc1ccccn1	1.42
NC(=O)c1ccc(N)cc1	-0.41
CN(C)/N=N/c1cccc(Cl)c1	3.44

SMILES	logP
NC(=O)/C=C/c1ccc2c(c1)OCO2	1.4
O=S1(=O)NC(C2CCCCC2)=Nc2ccccc21	2.2
CC1=NCCN1	0.52
C1=Cc2ccccc2C1	2.92
CCOC(=O)C(=Cc1cccc(OC)c1OC)C(C)=O	2.21
CC(=O)Nc1cccc(NC(C)=O)c1	0.5
CCCCC1OC(=O)c2cc([N+](=O)[O-])ccc21 (stereo not given)	2.92
O=C(CNC(=O)c1ccccc1)Oc1ccc(F)cc1	2.46
CC(=O)Nc1ccc(C(F)(F)F)cc1	2.52
CCOc1ccc(OC(C)=O)cc1	1.95
CCCc1ccc2c(c1)C(=O)c1ccc(NC(C)=O)cc1S2(=O)=O	3.51
CS(=O)c1ccccc1 (stereo not given)	0.55
Cc1cc(CSc2ccccc2Cl)c(O)c(C(=O)O)c1	4.69
CCOC(=O)CC(=O)C=Cc1ccc(C)cc1	2.63
O=C(Nc1ccc(Cl)c(Cl)c1)C(F)F	3.18
Cc1cccc(/N=N/N(C)C)c1	2.85
CC(C)C(=O)Nc1ccc(Cl)c(Cl)c1	3.72
CC1=Nc2cc(Br)ccc2S(=O)(=O)N1	1.37
CC(=O)Nc1cccc(C#N)c1	1.2
CNC(=O)Oc1ccccc1C1OCCO1	0.67
O=C1CCC2CCCCC2C1 (stereo not given)	1.97
CCC1OC(=O)C(C)C(OC2CC(C)(O)C(C)O2)C(C)C(OC2OC(C)C(O)C(N(C)C)C2O)C(C)(O)CC(C)C(=O)C(C)C(O)C1(C)O (stereo not given)	1.44
O=C(O)COc1ccc(Cl)c(Cl)c1	2.81

SMILES	logP
CCCCC(=O)Nc1ccccc1	2.61
ICCCc1ccccc1	3.9
COc1cc(C=NOC(=O)COc2ccccc2)ccc1OCCO	2.1
CCOC(=O)C(=Cc1ccc([N+](=O)[O-])cc1)C(=O)OCC	3.03
O=c1cncc[nH]1	-1.49
O=C1c2c(O)ccc(O)c2C(=O)c2c(NCCNCCO)ccc(NCCNCCO)c21	0.07
CC(C)(C)C(=O)Nc1ccc(Cl)c(Cl)c1	3.88
O=c1cc[nH]c2ccccc12	0.58
OCCOc1ccccc1	1.16
CNP(=O)(OC)Oc1ccc(Cl)cc1Cl (stereo not given)	2.41
COc1cccc(NC(C)=O)c1	1.28
COc1ccc2c(c1)N(CCCN(C)C)c1ccccc1S2	4.46
CC1=Nc2c(Cl)cccc2S(=O)(=O)N1	0.72
O=C(c1ccncc1)c1ccccc1O	2.13
CCCCOc1cccc(C=C(C(C)=O)C(=O)OCC)c1	3.12
CCC(=O)O[C@]1(C(=O)CO)[C@H](C)C[C@H]2[C@@H]3C[C@H](F)C4=CC(=O)C(Cl)=C[C@]4(C)[C@@]3(F)[C@@H](O)C[C@@]21C	2.99
CCCCC1OC(=O)c2cc(N)ccc21 (stereo not given)	2.86
CCCCC(=O)Nc1ccc(Cl)c(Cl)c1	4.17
Nc1ncco1	-0.18
CCCCC1OC(=O)c2cc(NC(C)=O)ccc21 (stereo not given)	2.77
OCCCc1nc2ccccc2[nH]1	1.25
S=P(N1CC1)(N1CC1)N1CC1	0.53
NS(=O)(=O)c1cccc(OC(=O)CNC(=O)c2ccccc2)c1	0.84

SMILES	logP
Nc1nccs1	0.38
CCC(=Cc1ccccc1)[N+](=O)[O-]	2.86
CCC(C)C(=O)Nc1ccc(Cl)c(Cl)c1 (stereo not given)	4.11
Cc1cccc(C(N)=O)c1	1.18
O=S1(=O)NC(C2CC=CC2)=Nc2ccccc21	1.53
COc1cccc(C(N)=O)c1	0.85
CN(C)CC(CN1c2ccccc2Sc2ccccc21)N(C)C (stereo not given)	4.76
ONc1ccccc1	0.79
FS(F)(F)(F)(F)c1ccccc1	3.36
O=c1[nH]cc(C(F)(F)F)c(=O)[nH]1	0.04
O=NN(CCCl)C(=O)NC12CC3CC(CC(C3)C1)C2	3.56
C=C(C=O)CC	1.24
CC(C(=O)N(C)c1ccc(S(=O)(=O)N(C)C)cc1)c1ccccc1 (stereo not given)	1.73
CC(=O)C(=Cc1cccc(Cl)c1)C(C)=O	2.26
CCOCCOC(=O)C(C#N)=CC(C)(C)NCc1ccc(Cl)cc1	4.05
COC(=O)C[C@](O)(CCC(C)(C)O)C(=O)O[C@@H]1C(OC)=C[C@]23CCCN2CCc2cc4c(cc2[C@H]13)OCO4	0.65
O=[N+]([O-])c1ccc2[nH]ccc2c1	2.53
CNC(=S)NC	-0.24
c1cnc2nccnc2c1	-0.04
CC(=O)NCc1ccccc1	0.95
O=[N+]([O-])c1ccc(C(F)(F)F)cc1	2.55
CCCCC1C(=O)NC(=O)NC1=O	0.77
c1ccc2c(c1)CNc1ccccc1C2	2.9

SMILES	logP
O=C(Nc1ccccc1)C(F)(F)F	2.21
CC(=O)Nc1cc(OCC(=O)O)ccc1Cl	0.75
O=Nc1ccc(O)c2ccccc12	2.27
CCOP(=O)(OCC)SCn1nnc2ccccc2c1=O	1.63
CCC(C)(C)C	3.82
O=c1[nH]c(=O)c2[nH]cnc2[nH]1	-0.73
Clc1ccc2[nH]c(CCc3nc4cc(Cl)ccc4[nH]3)nc2c1	1.13
O=S1(=O)N=C(C2CC=CCC2)Nc2ccccc21 (stereo not given)	2.05
NC(=O)C(=Cc1cccc(F)c1)C(N)=O	0.1
O=C1CN=C(c2ccc[nH]2)c2cc(Cl)ccc2N1	2.59
CN(C)CCN(C)C	0.3
CC(=O)Nc1cccc(N(C)C)c1	1.29
NC(=O)c1ccc(O)cc1	0.33
N#Cc1cccc(N)c1	1.07
C=CCN(C)/N=N/c1ccc(C(N)=O)cc1	2.09
Cc1c(Cl)c(Cl)c(Cl)c(Cl)c1Cl	5.62
CN(C)C(=S)Nc1ccccc1	1.04
Cc1ccc(C=C(C#N)C#N)cc1	2.4
N#CN=[N+]([O-])c1ccc([N+](=O)[O-])cc1	1.51
O=[N+]([O-])c1ccc(OCCn2ccnc2)cc1	1.69
FC(F)(F)Br	1.86
CCOc1ccccc1	2.51
Cc1ccsc1	2.34

SMILES	logP
CC(=O)Nc1cccc(/N=N/N(C)C)c1	1.61
C[C@]12CCC(=O)C=C1CC[C@@H]1[C@@H]2[C@@H](O)C[C@@]2(C)[C@H]1CC[C@]2(O)C(=O)CO	1.61
O=C(COc1ccccc1)N1CCCCC1	1.81
Sc1ncccn1	-0.97
CN1CCOCC1	-0.33
CC(C)(C)C	3.11
CC(=O)O[C@@H]1[C@@H](OC(C)=O)[C@H](OC(C)=O)CO[C@H]1NC(=O)N(CCCl)N=O	1.05
CC(C)C(=O)Nc1ccccc1	1.95
Nc1nc(O)c2nc[nH]c2n1	-0.91
Oc1ccccc1-c1ccccc1	3.09
COC(=O)c1ccsc1	1.76
O=S1(=O)NC(C2=CCCC2)=Nc2ccccc21	1.69
CCCC1=Nc2cc(Cl)ccc2S(=O)(=O)N1	2.04
CC(=O)OC1CCCC(NC(=O)N(CCF)N=O)C1 (stereo not given)	1.33
O=S1(=O)NC=Nc2cc(Cl)ccc21	1.01
N=C(N)NS(=O)(=O)c1ccc(N)cc1	-1.22
FC(F)(F)c1ccccc1	2.9
CCCCOC(=O)c1ccc(C(=O)OCCCC)cc1	5.53
CCC(C)NC(=O)/C(F)=C\c1ccccc1 (stereo not given)	3.1
CCCCC1OC(=O)c2ccccc21 (stereo not given)	2.8
O=c1[nH]c2ccccc2[nH]c1=O	0.2
CC(=O)Oc1ccccc1C#N	1.33

same assay, conditions: pH 0.7

SMILES	logD
O=C(O)c1cc(=O)c2ccccc2o1	1.63

same assay, conditions: pH 1.0

SMILES	logD
N#Cc1c[nH]c(=O)[nH]c1=O	-0.93

same assay, conditions: pH 2.0

SMILES	logD
CN(C)/N=N/c1ccccc1I	3.5

same assay, conditions: pH 5.0

SMILES	logD
O=c1cccccc1O	0.75

same assay, conditions: pH 7.0

SMILES	logD
O=Cc1cccc([N+](=O)[O-])c1	1.47
CC(=O)Oc1ccc(C(C)=O)cc1	1.29
COc1cccc(C(C)=O)c1	1.84
CC(=O)c1cccc(C(C)=O)c1	1.43
CC(=O)c1cccc(C#N)c1	1.16

same assay, conditions: pH 7.4

SMILES	logD
CN(C)/N=N/c1ccccc1Cl	3.03
COc1ccc2c(c1O)-c1cccc3c1C(C2)N(CCO)CC3 (stereo not given)	2.43
NC(=O)c1ncccc1O	0.65
O=c1[nH]c(=O)n(C2CCCO2)cc1F (stereo not given)	-0.27
CCN(CC)c1c(C)n(-c2ccccc2)c(=O)n(CC)c1=O	2.78
CO[C@H]1O[C@H](CO)[C@@H](O)[C@H](NC(=O)N(C)N=O)[C@H]1O	-1.45

same assay, conditions: pH 9.2

SMILES	logD
CC(C)C#CN(C)C(C)C	2.29

same assay, conditions: pH 11.0

SMILES	logD
CCCCNCc1cccnc1	1.34
NCc1cccnc1	-0.1

same assay, conditions: pH 12.0

SMILES	logD
CCCCC1CC(C(=O)NC(C(C)Cl)C2OC(SC)C(O)C(O)C2O)N(CC)C1 (stereo not given)	3.21

same assay, conditions: pH 13.0

SMILES	logD
NN(c1ccccc1)c1ccccc1	2.8
CNC1(c2ccccc2Cl)CCCCC1=O (stereo not given)	2.18
CC1(C)N=C(N)N=C(N)N1c1cccc(C#N)c1	-0.24
CN(Cc1ccccc1)c1ccccc1	4.22

Reference: the SangsterLogP compilation
